We go through four compounds from patent publication US8980922B2, “5-HT4 receptor agonists for the treatment of dementia” (Raqualia Pharma Inc., priority 2010, dated 2015).

The structures appear in SMILES notation. Structures can show the parent of a compound that is named as a salt.

Assay [1] relates to Male IGS rats. Nature of the assay: Spontaneous alteration test in rats (scopolamine-induced impairment). Format: in vivo, rat. On the procedure:
Spontaneous Alteration Test in Rats (Method Referred: Eur. J. Pharmacol., 236 (1993) 341-345)
Male IGS rats (6 weeks-old, Charles River Laboratories Japan, Inc.) were used in this study. The scopolamine solution or saline was administered intraperitoneally 30 minutes after the administration of the test substance or vehicle. Thirty minutes after the injection, the rat was placed at the end of one arm toward to the end of the arm and was allowed to move freely through the maze for 8-min test session. The sequence of arm entries was recorded manually. Alteration was defined as entry into all three arms on consecutive choices. The percent alteration as an indicator of spontaneous alteration performance was calculated as (number of alterations/total number of arm entries minus 2)×100.
The effect of Compound A on the scopolamine-induced impairment of spontaneous alteration performance in rats was investigated. In the percent alterations, the values on saline- and scopolamine-treated groups were 75.2% and 53.9%, respectively.

Assay [2] deals with rat hippocampus (Hip) ACh level. The experiment in a line: Increase of hippocampus ACh release in rats (microdialysis). Format: in vivo. Particulars: direct injection (perfusion via dialysis probe, 120 min) into rat Hip; 100 nM eserine in aCSF. On the procedure:
Increase of Hippocampus ACh Release in Rats
Effects of Compound A on rat hippocampus (Hip) ACh level were tested using microdialysis in Male Wistar rats. One day before the start of the experiments, rats were anesthetized and guide cannula was implanted in the dorsal Hip. One day after surgery, a dialysis probe was inserted through a guide cannula in Hip and perfused with artificial cerebrospinal fluid (aCSF) containing 148 mM NaCl, 2.7 mM KCl, 1.2 mM CaCl2, 0.85 mM MgCl2, together with 100 nM eserine. After a 1 h equilibration period, sample collection began. Outflow fractions were collected every 20 min. After six stable baseline fractions were collected, the perfusate was replaced to aCSF containing Compound A with 100 nM eserine for 120 min, and then it was switched again to aCSF with 100 nM eserine alone. Dialysis fractions were then analyzed using high performance liquid chromatography with an electrochemical detection system. Isopropyl homocholine was used as internal standard. The amount of ACh in each dialysate sample was calculated from the peak height ratio of ACh/IPHC. ACh content was expressed as a percent of baseline calculated from the average of three samples preceding drug infusion.
ACh content was expressed as a percent of baseline calculated from the average of three samples preceding drug infusion.

Assay [3] deals with Tg2576 mice. The experiment in a line: Abeta reduction in Tg2576 mice. Format: in vivo. The note with it: 1 and 10 mg/kg BID orally, three weeks; soluble plus insoluble Abeta, ELISA. The method, then:
Female Tg2576 mice that express the human amyloid precursor protein (APP) gene with the Swedish mutation (APPSWE) were purchased from Taconic Farms (catalog #001349-TF).
Tg2576 mice (31-week old at the beginning of the experiment) were dosed orally twice a day (BID) for 3 weeks with 0.1, 1, or 10 mg/kg Compound A in the vehicle consisting of 0.5% methylcellulose and 0.1% Tween 80. Mice were euthanized three hours after the last dose. Brain tissues were collected and homogenized in 5-volumes of ice-cold TBS buffer (50 mM Tris-HCl) containing 1% CHAPS and protease inhibitors. The homogenates were centrifuged at 14,000 g for 10 minutes at 4° C., and the resulting supernatants were collected as soluble pool of Abeta. The pellets were dissolved in the starting volume of 5 M guanidine in TBS buffer and the resulting homogenates were collected as insoluble pool of Abeta. Abeta1-40 and Abeta1-42 were quantified using commercially available ELISA kits according to the manufacture's instructions. Measurements were performed in duplicate. The final values of Abeta in the brain were expressed as nanograms per gram wet brain weight. Total Abeta levels were obtained by adding the values of the soluble and insoluble Abeta levels.

Assay [4] deals with Male IGS rats. Nature of the assay: Rat Novel Object Recognition Study. Format: in vivo. The method, then: Rat Novel Object Recognition Study (Method Referred: PNAS, 101 (2003) 853-858)
Male IGS rats (9 weeks-old, Charles River Laboratories Japan, Inc.) were used in this study. Compound A and donepezil hydrochloride (reference substance) were orally administered at 60 min before training trial and before retention trial. Number of animals per group was 15. Open-field box (40×40×40 cm) with sawdust covering its floor was used in this study. As for the training trials, the animals were allowed to explore two identical objects (A1 and A2) for 3 min. The objects are plastic “LEGO bricks” that vary in shape, color, and size. […]
Exploration of an object was defined as pointing the nose to the object at a distance of <1 cm and/or touching it with the nose. DVD images were analyzed by an observer who was […] of the treatment condition. To assess cognitive performance, the time spent exploring the familiar (TA3) and novel (TB) object, and discrimination index (DI; (TB−TA3)/(TB+TA3)) was analyzed. […] To assess the overall levels of exploratory performance, total time spent exploring the both objects was analyzed.
For Compound A, discrimination index was analyzed using Bartlett's test followed by Dunnett's multiple comparison test. […] For donepezil, discrimination index was analyzed using F-test, followed by Student's t-test. […]

Assay [5] deals with Abeta. The note with it: NPL 13; cited from earlier work.

As for `CN1[C@@H]2C[C@@H](OC(=O)[C@H](CO)c3ccccc3)C[C@H]1[C@@H]1O[C@@H]12` [scopolamine, reference compound], the percent alteration in assay [1] (scopolamine-treated group (intraperitoneal), saline-treated group 75.2%, p<0.01) is 53.9%.
For the compound `CC(C)n1c(=O)n(C(=O)NCC2CCN(CC3(O)CCOCC3)CC2)c2ccccc21` [Compound A, N-((1-((4-hydroxytetrahydro-2H-pyran-4-yl)methyl)piperidin-4-yl)methyl)-3-isopropyl-2-oxo-2,3-dihydro-1H-benzo[d]imidazole-1-carboxamide], in assay [2], the “ACh concentration (percent of baseline)” value worked out at 187%. For the same compound, in assay [3], the “total brain Abeta1-40 levels” value is recorded as “significantly decreased total brain Abeta1-40 levels”; the “total brain Abeta1-42 levels” value was “dose-dependently and substantially decreased total brain Abeta1-42 levels”. The discrimination index result in assay [4] (Compound A 0.1, 0.3, 1 mg/kg, orally 60 min before training and retention trial, vs vehicle (*p<0.05, **p<0.01, Dunnett)) is on record as “statistically significant compared to that in vehicle-treated group”. In assay [1] (0.1 and 3 mg/kg, scopolamine-induced impairment), the percent alteration result is on record as “showed a tendency to improve without statistical significance”. Moreover, the percent alteration entry in assay [1] (doses of 0.3 and 1 mg/kg, scopolamine-induced impairment, vs vehicle-treated group (p<0.01)) is recorded as “significantly increased the percent alterations”.
Consider `COc1cc2c(cc1OC)C(=O)C(CC1CCN(Cc3ccccc3)CC1)C2` (stereo not drawn) [donepezil, donepezil hydrochloride, reference compound], for which the discrimination index result in assay [4] (donepezil-treated group, orally, vs vehicle (p<0.05, Student's t-test)) is “statistically significant compared to that in vehicle-treated group”.
Take `CC(C)n1c(=O)c(C(=O)NCCCN2CCCCC2)c(O)c2ccsc21` [PRX-03140]: in assay [5], the “Abeta reduction in animal models” value is given as “Abeta reducing tendency while those efficacies were not significant suppressions”.
